Data published in patent US8101550B2, “Anthranilic acid diamide derivative with hetero-aromatic and hetero-cyclic substituents” (Bayer Cropscience AG, priority 2006, dated 2012).

assay: log P determination by HPLC on reverse-phase column (EEC Directive 79/831 Annex V.A8); assay type: physicochemical
Procedure: The log P values stated in the foregoing tables and preparation examples are determined in accordance with EEC Directive 79/831 Annex V.A8 by means of HPLC (High Performance Liquid Chromatography) on a reverse-phase column (C 18). Temperature: 43° C.
The determination by LC-MS in the acidic range takes place at a pH of 2.7 using 0.1% aqueous formic acid and acetonitrile (containing 0.1% formic acid) as eluents; linear gradient from 10% acetonitrile to 95% acetonitrile.
Calibration is with unbranched alkan-2-ones (having 3 to 16 carbon atoms) of known log P value (log P values determined from the retention times by linear interpolation between two successive alkanones).

Compound	logP
Cc1cc(Cl)cc(C(=O)NC(C)C)c1NC(=O)c1cc(Cn2cnc(-c3ccc(Cl)cc3)n2)nn1-c1ncccc1Cl [I-1-154]	3.56
CNC(=O)c1cc(Cl)cc(C)c1NC(=O)c1cc(Cn2nnc(-c3cc(Cl)nc(Cl)c3)n2)nn1-c1ncccc1Cl [I-1-155]	3.69
Cc1cc(Cl)cc(C(=O)NC(C)C)c1NC(=O)c1cc(Cn2nnc(-c3cc(Cl)nc(Cl)c3)n2)nn1-c1ncccc1Cl [I-1-156]	4.17
CSC[C@H](C)NC(=O)c1cc(Cl)cc(C)c1NC(=O)c1cc(Cn2nnc(-c3cc(Cl)nc(Cl)c3)n2)nn1-c1ncccc1Cl [I-1-157]	4.36
CSC[C@H](C)NC(=O)c1cc(Cl)cc(C)c1NC(=O)c1cc(Cn2nnc(-c3ccc(Cl)nc3)n2)nn1-c1ncccc1Cl [I-1-158]	3.67
CSC[C@H](C)NC(=O)c1cc(Cl)cc(C)c1NC(=O)c1cc(Cn2cnc(-c3ccc(Cl)nc3)n2)nn1-c1ncccc1Cl [I-1-159]	3.78
CNC(=O)c1cc(Cl)cc(C)c1NC(=O)c1cc(Cn2cnc(C(C)(C)C)n2)nn1-c1ncccc1Cl [I-1-160]	2.39
Cc1cc(Cl)cc(C(=O)NC(C)C)c1NC(=O)c1cc(Cn2cnc(C(C)(C)C)n2)nn1-c1ncccc1Cl [I-1-161]	2.87
CSC[C@H](C)NC(=O)c1cc(Cl)cc(C)c1NC(=O)c1cc(Cn2cnc(C(C)(C)C)n2)nn1-c1ncccc1Cl [I-1-162]	3.10
CNC(=O)c1cc(Cl)cc(C)c1NC(=O)c1cc(Cn2nnnc2-c2ccc(C(F)(F)F)cc2)nn1-c1ncccc1Cl [I-1-163]	3.15
CNC(=O)c1cc(Cl)cc(C)c1NC(=O)c1cc(Cn2nnc(-c3ccccc3)n2)nn1-c1ncccc1Cl [I-1-165]	3.09
Cc1cc(Cl)cc(C(=O)NC(C)C)c1NC(=O)c1cc(Cn2nnc(-c3ccccc3)n2)nn1-c1ncccc1Cl [I-1-166]	3.60
Cc1cc(Cl)cc(C(=O)N=S(C(C)C)C(C)C)c1NC(=O)c1cc(Cn2nc(C(F)(F)F)nc2C(F)(F)F)nn1-c1ncccc1Cl [I-1-167]	4.44
Cc1cc(Cl)cc(C(=O)NC(C)C)c1NC(=O)c1cc(Cn2nnn(-c3ccc(Cl)cc3)c2=O)nn1-c1ncccc1Cl [I-1-168]	3.79
Cc1cc(C#N)cc(C(=O)NC(C)C)c1NC(=O)c1cc(Cn2cc(C(F)(F)C(F)(F)F)c(C(F)(F)C(F)(F)F)n2)nn1-c1ncccc1Cl [I-1-169]	4.55
CNC(=O)c1cc(C#N)cc(C)c1NC(=O)c1cc(Cn2cc(C(F)(F)C(F)(F)F)c(C(F)(F)C(F)(F)F)n2)nn1-c1ncccc1Cl [I-1-170]	4.08
CNC(=O)c1cc(C#N)cc(C)c1NC(=O)c1cc(Cn2cc(Cl)c(C(F)(F)C(F)(F)F)n2)nn1-c1ncccc1Cl [I-1-171]	3.44
Cc1cc(C#N)cc(C(=O)NC(C)C)c1NC(=O)c1cc(Cn2cc(Cl)c(C(F)(F)C(F)(F)F)n2)nn1-c1ncccc1Cl [I-1-172]	3.87
Cc1cc(C#N)cc(C(=O)NC2CC2)c1NC(=O)c1cc(Cn2cc(Cl)c(C(F)(F)C(F)(F)F)n2)nn1-c1ncccc1Cl [I-1-173]	3.59
Cc1cc(C#N)cc(C(N)=O)c1NC(=O)c1cc(Cn2cc(Cl)c(C(F)(F)C(F)(F)F)n2)nn1-c1ncccc1Cl [I-1-174]	3.20

Compound	logP
Cc1cc(C#N)cc(C(=O)NCC#N)c1NC(=O)c1cc(Cn2cc(Cl)c(C(F)(F)C(F)(F)F)n2)nn1-c1ncccc1Cl [I-1-175]	3.40
CNC(=O)c1cc(C#N)cc(C)c1NC(=O)c1cc(Cn2nc(C(F)(F)F)nc2C(F)(F)F)nn1-c1ncccc1Cl [I-1-176]	3.11
Cc1cc(C#N)cc(C(=O)NC(C)C)c1NC(=O)c1cc(Cn2nc(C(F)(F)F)nc2C(F)(F)F)nn1-c1ncccc1Cl [I-1-177]	3.53
Cc1cc(C#N)cc(C(=O)NC2CC2)c1NC(=O)c1cc(Cn2nc(C(F)(F)F)nc2C(F)(F)F)nn1-c1ncccc1Cl [I-1-178]	3.31
Cc1cc(C#N)cc(C(N)=O)c1NC(=O)c1cc(Cn2nc(C(F)(F)F)nc2C(F)(F)F)nn1-c1ncccc1Cl [I-1-179]	2.91
Cc1cc(C#N)cc(C(=O)NCC#N)c1NC(=O)c1cc(Cn2nc(C(F)(F)F)nc2C(F)(F)F)nn1-c1ncccc1Cl [I-1-180]	3.11
CNC(=O)c1cc(C#N)cc(C)c1NC(=O)c1cc(Cn2ccc(C(F)(F)F)n2)nn1-c1ncccc1Cl [I-1-181]	2.57
Cc1cc(C#N)cc(C(=O)NC(C)C)c1NC(=O)c1cc(Cn2ccc(C(F)(F)F)n2)nn1-c1ncccc1Cl [I-1-182]	2.96
Cc1cc(C#N)cc(C(=O)NC2CC2)c1NC(=O)c1cc(Cn2ccc(C(F)(F)F)n2)nn1-c1ncccc1Cl [I-1-183]	2.75
Cc1cc(C#N)cc(C(N)=O)c1NC(=O)c1cc(Cn2ccc(C(F)(F)F)n2)nn1-c1ncccc1Cl [I-1-184]	2.42
Cc1cc(C#N)cc(C(=O)NCC#N)c1NC(=O)c1cc(Cn2ccc(C(F)(F)F)n2)nn1-c1ncccc1Cl [I-1-185]	2.62
CNC(=O)c1cc(C#N)cc(C)c1NC(=O)c1cc(Cn2nc(C(F)(F)F)cc2C(F)(F)F)nn1-c1ncccc1Cl [I-1-186]	3.35
Cc1cc(C#N)cc(C(=O)NC(C)C)c1NC(=O)c1cc(Cn2nc(C(F)(F)F)cc2C(F)(F)F)nn1-c1ncccc1Cl [I-1-187]	3.80
Cc1cc(C#N)cc(C(=O)NC2CC2)c1NC(=O)c1cc(Cn2nc(C(F)(F)F)cc2C(F)(F)F)nn1-c1ncccc1Cl [I-1-188]	3.56
Cc1cc(C#N)cc(C(N)=O)c1NC(=O)c1cc(Cn2nc(C(F)(F)F)cc2C(F)(F)F)nn1-c1ncccc1Cl [I-1-189]	3.15
Cc1cc(C#N)cc(C(=O)NCC#N)c1NC(=O)c1cc(Cn2nc(C(F)(F)F)cc2C(F)(F)F)nn1-c1ncccc1Cl [I-1-190]	3.28
Cc1cc(C#N)cc(C(=O)NC2CC2)c1NC(=O)c1cc(Cn2cc(C(F)(F)C(F)(F)F)c(C(F)(F)C(F)(F)F)n2)nn1-c1ncccc1Cl [I-1-191]	4.29
Cc1cc(C#N)cc(C(N)=O)c1NC(=O)c1cc(Cn2cc(C(F)(F)C(F)(F)F)c(C(F)(F)C(F)(F)F)n2)nn1-c1ncccc1Cl [I-1-192]	3.91
Cc1cc(C#N)cc(C(=O)NCC#N)c1NC(=O)c1cc(Cn2cc(C(F)(F)C(F)(F)F)c(C(F)(F)C(F)(F)F)n2)nn1-c1ncccc1Cl [I-1-193]	4.04
CSCC(C)NC(=O)c1cc(F)cc(C)c1NC(=O)c1cc(Cn2cc(Cl)c(C(F)(F)C(F)(F)F)n2)nn1-c1ncccc1Cl (stereo not drawn) [I-1-195]	4.13

Compound	logP
Cc1cc(F)cc(C(=O)NCc2ccco2)c1NC(=O)c1cc(Cn2cc(Cl)c(C(F)(F)C(F)(F)F)n2)nn1-c1ncccc1Cl [I-1-196]	3.90
Cc1cc(C#N)cc(C(=O)NC2C3CCCCC32)c1NC(=O)c1cc(Cn2cc(Cl)c(C(F)(F)C(F)(F)F)n2)nn1-c1ncccc1Cl (stereo not drawn) [I-1-197]	4.50
Cc1cc(C#N)cc(C(=O)NC2CC2CO)c1NC(=O)c1cc(Cn2cc(Cl)c(C(F)(F)C(F)(F)F)n2)nn1-c1ncccc1Cl (stereo not drawn) [I-1-198]	3.11
Cc1cc(F)cc(C(=O)NC2C3CCCCC32)c1NC(=O)c1cc(Cn2cc(Cl)c(C(F)(F)C(F)(F)F)n2)nn1-c1ncccc1Cl (stereo not drawn) [I-1-199]	4.55
Cc1cc(Cl)cc(C(=O)NCc2ccco2)c1NC(=O)c1cc(Cn2cc(Cl)c(C(F)(F)C(F)(F)F)n2)nn1-c1ncccc1Cl [I-1-201]	4.21
Cc1cc(Cl)cc(C(=O)NC2CCCC2N)c1NC(=O)c1cc(Cn2cc(Cl)c(C(F)(F)C(F)(F)F)n2)nn1-c1ncccc1Cl (stereo not drawn) [I-1-202]	2.30
Cc1cc(F)cc(C(=O)NC2CC2CO)c1NC(=O)c1cc(Cn2cc(Cl)c(C(F)(F)C(F)(F)F)n2)nn1-c1ncccc1Cl (stereo not drawn) [I-1-203]	3.14
Cc1cc(F)cc(C(=O)NC(C)CS(C)(=O)=O)c1NC(=O)c1cc(Cn2cc(Cl)c(C(F)(F)C(F)(F)F)n2)nn1-c1ncccc1Cl (stereo not drawn) [I-1-204]	3.34
Cc1cc(Cl)cc(C(=O)NC2C3CCCCC32)c1NC(=O)c1cc(Cn2cc(Cl)c(C(F)(F)C(F)(F)F)n2)nn1-c1ncccc1Cl (stereo not drawn) [I-1-205]	4.88
CSCC(C)NC(=O)c1cc(Cl)cc(C)c1NC(=O)c1cc(Cn2cc(Cl)c(C(F)(F)C(F)(F)F)n2)nn1-c1ncccc1Cl (stereo not drawn) [I-1-206]	4.41
Cc1cc(Cl)cc(C(=O)NC2CC2CO)c1NC(=O)c1cc(Cn2cc(Cl)c(C(F)(F)C(F)(F)F)n2)nn1-c1ncccc1Cl (stereo not drawn) [I-1-207]	3.37
Cc1cc(C#N)cc(C(=O)NCc2ccco2)c1NC(=O)c1cc(Cn2cc(Cl)c(C(F)(F)C(F)(F)F)n2)nn1-c1ncccc1Cl [I-1-208]	3.90
CSCC(C)NC(=O)c1cc(C#N)cc(C)c1NC(=O)c1cc(Cn2cc(Cl)c(C(F)(F)C(F)(F)F)n2)nn1-c1ncccc1Cl (stereo not drawn) [I-1-209]	4.05
Cc1cc(C#N)cc(C(=O)NC(C)CS(C)(=O)=O)c1NC(=O)c1cc(Cn2cc(Cl)c(C(F)(F)C(F)(F)F)n2)nn1-c1ncccc1Cl (stereo not drawn) [I-1-210]	3.34
Cc1cc(C#N)cc(C(=O)NC(C)C[S+](C)[O-])c1NC(=O)c1cc(Cn2cc(Cl)c(C(F)(F)C(F)(F)F)n2)nn1-c1ncccc1Cl (stereo not drawn) [I-1-211]	3.02
Cc1cc(Cl)cc(C(=O)NC(C)C[S+](C)[O-])c1NC(=O)c1cc(Cn2cc(Cl)c(C(F)(F)C(F)(F)F)n2)nn1-c1ncccc1Cl (stereo not drawn) [I-1-212]	3.25
Cc1cc(Cl)cc(C(=O)NC(C)CS(C)(=O)=O)c1NC(=O)c1cc(Cn2cc(Cl)c(C(F)(F)C(F)(F)F)n2)nn1-c1ncccc1Cl (stereo not drawn) [I-1-213]	3.60
Cc1cc(Cl)cc(C(=O)NC(CN2CCCCC2)C2CC2)c1NC(=O)c1cc(Cn2cc(Cl)c(C(F)(F)C(F)(F)F)n2)nn1-c1ncccc1Cl (stereo not drawn) [I-1-214]	2.77
CCN(CC)CC(C)NC(=O)c1cc(Cl)cc(C)c1NC(=O)c1cc(Cn2cc(Cl)c(C(F)(F)C(F)(F)F)n2)nn1-c1ncccc1Cl (stereo not drawn) [I-1-215]	2.62
Cc1cc(F)cc(C(=O)NC(C)C[S+](C)[O-])c1NC(=O)c1cc(Cn2cc(Cl)c(C(F)(F)C(F)(F)F)n2)nn1-c1ncccc1Cl (stereo not drawn) [I-1-216]	3.03
